For eight compounds, IC50, Activity and inhibition results are on record in ChEMBL document CHEMBL6092168, “Identification of novel indolinone derivatives as CTSC inhibitors to treat inflammatory bowel disease by modulating inflammatory factors” (Eur J Med Chem, 2024).

Structures are written as SMILES. Calls of active or inactive are those of the source. The rule behind the calls is not given here. A value given as a limit tells only on which side of the number the result lay.

Experiment [1] relates to RAW264.7. As to the kind of experiment: Anti-inflammatory activity in mouse RAW264.7 cells assessed as inhibition of LPS-induced NO production preincubated for 1 hr followed by LPS addition and measured after 24 hrs by Griess reagent based assay. The class given is functional, cell-based. Background: Nitrite, measured by Griess reagent, commonly stands in for NO production.

Experiment [2] concerns Mus musculus. The experiment in a line: Anti-inflammatory activity in DSS-induced ulcerative colitis C57BL/6 mouse model assessed as effect on Cathepsin C activity at 60 mg/kg, administered twice daily. The class given is functional, organism-based.
Experiment [3] addresses T1, Myeloblastin (Homo sapiens) (UniProt P24158).
T1 sequence (whole entry): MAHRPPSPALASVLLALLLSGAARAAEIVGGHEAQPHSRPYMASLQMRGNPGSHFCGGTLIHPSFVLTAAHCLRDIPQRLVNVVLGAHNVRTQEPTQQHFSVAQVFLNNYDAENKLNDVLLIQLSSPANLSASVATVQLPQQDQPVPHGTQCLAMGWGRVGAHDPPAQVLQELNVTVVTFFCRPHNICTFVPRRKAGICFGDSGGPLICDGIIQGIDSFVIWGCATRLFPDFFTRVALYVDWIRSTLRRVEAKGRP
As to the kind of experiment: Inhibition of proteinase 3 in human U-937 cells using aminobenzoyl-Val-Ala-Asp-Cys-Ala-Asp-Gln-ethylenediamine 2,4-dinitrophenyl as substrate at 10 uM incubated for 5 days by fluorescence based microplate reader analysis relative to control. In kind it is cell-based. As to conditions: time 5.0 day.

Experiment [4] concerns the target T2, Dipeptidyl peptidase 1 (Homo sapiens, UniProt P53634). The experiment in a line: Inhibition of Cathepsin C in human U-937 cells using H-Gly-Arg-AMC as substrate at 10 uM incubated for 5 days by fluorescence based microplate reader analysis relative to control. The settings on record: time 5.0 day. The class given is cell-based.
Experiment [5] concerns the target T3, Cathepsin G (Homo sapiens) (UniProt P08311).
T3 sequence (whole entry): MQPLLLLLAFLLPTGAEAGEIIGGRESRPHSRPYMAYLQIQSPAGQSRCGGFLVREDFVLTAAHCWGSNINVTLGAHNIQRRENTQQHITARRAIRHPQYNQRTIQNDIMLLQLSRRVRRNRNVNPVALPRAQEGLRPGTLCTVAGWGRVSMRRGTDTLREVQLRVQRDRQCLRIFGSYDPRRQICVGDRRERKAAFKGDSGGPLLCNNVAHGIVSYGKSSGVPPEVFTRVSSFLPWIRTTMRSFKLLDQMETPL
As to the kind of experiment: Inhibition of Cathepsin G in human U-937 cells using N-Suc-Ala-Ala-Pro-Phe-pNA as substrate at 10 uM incubated for 5 days by […] based microplate reader analysis relative to control. The class given is cell-based. As to conditions: time 5.0 day.

Experiment [6] concerns the target T4, Neutrophil elastase (Homo sapiens) (UniProt P08246).
T4 sequence (whole entry): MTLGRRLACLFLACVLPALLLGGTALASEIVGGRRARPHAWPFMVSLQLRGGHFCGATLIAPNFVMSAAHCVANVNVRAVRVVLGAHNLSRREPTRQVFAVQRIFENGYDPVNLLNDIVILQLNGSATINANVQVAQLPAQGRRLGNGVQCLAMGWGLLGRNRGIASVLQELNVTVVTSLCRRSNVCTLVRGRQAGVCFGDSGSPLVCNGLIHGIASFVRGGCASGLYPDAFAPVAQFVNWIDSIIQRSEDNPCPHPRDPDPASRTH
As to the kind of experiment: Inhibition of neutrophil elastase in human U-937 cells using N-MeSuc-Ala-Pro-Val-pNA as substrate at 10 uM incubated for 5 days by […] based microplate reader analysis relative to control. In kind it is cell-based. As to conditions: time 5.0 day.

Experiment [7] relates to Mus musculus. As to the kind of experiment: Anti-inflammatory activity in DSS-induced ulcerative colitis C57BL/6 mouse model assessed as effect on neutrophil serine proteases level at 60 mg/kg, administered twice daily. In kind it is functional, organism-based.
In experiment [8] the test system is RAW264.7. The experiment in a line: Anti-inflammatory activity in mouse RAW264.7 cells assessed as inhibition of LPS-induced TNF-alpha production at 5 uM preincubated for 1 hr followed by LPS addition and measured after 24 hrs by ELISA relative to control. In kind it is functional. On the set-up: scale not given: the % may be the effect or the level left.
The subject of experiment [9] is RAW264.7. The experiment in a line: Anti-inflammatory activity in mouse RAW264.7 cells assessed as inhibition of LPS-induced IL-1beta production at 5 uM preincubated for 1 hr followed by LPS addition and measured after 24 hrs by ELISA relative to control. More on the design: scale not given: the % may be the effect or the level left. The class given is functional.

For experiment [10], the system named is Mus musculus. As to the kind of experiment: Anti-inflammatory activity in DSS-induced ulcerative colitis male C57BL/6 mouse model assessed as reduction in neutrophil elastase level in colon at 60 mg/kg administered via gavage for 10 days relative to control. In kind it is functional. The settings on record: time 10.0 day.
Experiment [11] relates to Mus musculus. The experiment in a line: Anti-inflammatory activity in DSS-induced ulcerative colitis male C57BL/6 mouse model assessed as reduction in Cathepsin G level in colon at 60 mg/kg administered via gavage for 10 days relative to control. In kind it is functional. As to conditions: time 10.0 day.
In experiment [12] the test system is Mus musculus. As to the kind of experiment: Anti-inflammatory activity in DSS-induced ulcerative colitis male C57BL/6 mouse model assessed as reduction in proteinase 3 level in colon at 60 mg/kg administered via gavage for 10 days relative to control. The settings on record: time 10.0 day. In kind it is functional.
Experiment [13] relates to Mus musculus. The experiment in a line: Anti-inflammatory activity in DSS-induced ulcerative colitis male C57BL/6 mouse model assessed as reduction in Cathepsin C level in colon at 60 mg/kg administered via gavage for 10 days. The class given is functional. As to conditions: time 10.0 day.
The subject of experiment [14] is Mus musculus. The experiment in a line: Anti-inflammatory activity in DSS-induced ulcerative colitis male C57BL/6 mouse model assessed as reduction in neutrophil elastase level in serum at 60 mg/kg administered via gavage for 10 days relative to control. The class given is functional. As to conditions: time 10.0 day.
Experiment [15] has as its system Mus musculus. The experiment in a line: Anti-inflammatory activity in DSS-induced ulcerative colitis male C57BL/6 mouse model assessed as reduction in Cathepsin G level in serum at 60 mg/kg administered via gavage for 10 days relative to control. In kind it is functional. As to conditions: time 10.0 day.
In experiment [16] the test system is Mus musculus. The experiment in a line: Anti-inflammatory activity in DSS-induced ulcerative colitis male C57BL/6 mouse model assessed as reduction in Cathepsin C level in serum at 60 mg/kg administered via gavage for 10 days relative to control. In kind it is functional. The settings on record: time 10.0 day.
Experiment [17] deals with T2, Dipeptidyl peptidase 1. As to the kind of experiment: Inhibition of human recombinant Cathepsin C using Gly-Phe-AFC as substrate preincubated for 3 hrs followed by substrate addition and measured after 1 hr by fluorescence based multifunctional microplate reader analysis.

T2 sequence (P53634 25-134 limits assumed): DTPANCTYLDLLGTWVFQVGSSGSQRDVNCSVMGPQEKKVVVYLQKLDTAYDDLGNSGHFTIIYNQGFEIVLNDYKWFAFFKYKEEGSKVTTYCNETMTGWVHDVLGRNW
T2 sequence (P53634 231-394 limits assumed): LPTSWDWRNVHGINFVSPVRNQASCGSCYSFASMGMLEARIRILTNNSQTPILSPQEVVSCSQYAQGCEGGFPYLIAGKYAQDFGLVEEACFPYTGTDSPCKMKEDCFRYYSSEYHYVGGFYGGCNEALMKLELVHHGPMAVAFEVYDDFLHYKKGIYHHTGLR
T2 sequence (P53634 395-463 limits assumed): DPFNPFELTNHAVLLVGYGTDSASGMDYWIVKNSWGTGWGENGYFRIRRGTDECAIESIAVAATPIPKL

One may read the IC50 as the concentration needed to halve the response being measured. As a reminder, the inhibition is the percentage by which the read-out fell short of the control. In the case of `Cn1c(=O)oc2ccc(-c3ccc(C[C@@H](C#N)NC(=O)[C@@H]4CNCCCO4)cc3)cc21` [BRENSOCATIB], the IC50 in experiment [1] is 6.7 µM. Moreover, the outcome in experiment [2] and in [7] was Active. Moreover, the inhibition in experiment [3] stood at 16.7%; in [4], 10.1%; in [5], 12.1%; in [6] it was 8.29%. Also, the Activity in experiment [8] (time 25 hrs) was found to be 65.1%; in [9] (time 25 hrs) it was 70.9%.
With `Nc1ccc(O)c(C(=O)O)c1`, the result in [10], in experiment [11], in experiment [12], in [13], in [14] and in experiment [15] was Active. The outcome in [16] was Active.
As to `O=C1Nc2c(cccc2-c2ccc(C(=O)N3CCOCC3)cc2)/C1=C/c1ccnc2ccccc12`, the IC50 in experiment [1] was found to be 8.6 µM; in experiment [17], 0.182 µM. The Activity worked out at 58.1% in [8] (time 25 hrs) and 65.2% in experiment [9] (time 25 hrs).
Regarding `CC(C)c1ccc(NC(=O)c2cccc(-c3ccc(CN4CCOCC4)cc3)c2)cc1`, the results for the IC50 in experiment [1] and in experiment [17] were greater than 50 µM and greater than 1 µM, respectively. The result in experiment [8] (time 25.0 hrs) and in experiment [9] (time 25.0 hrs) was inactive.
As for `O=C(Nc1cccc2ccccc12)c1cccc(-c2ccc(CN3CCOCC3)cc2)n1`, the values for the IC50 in experiment [1] and in experiment [17] were 10 µM and 0.253 µM, respectively. The Activity in experiment [8] (time 25 hrs) turned out to be 59.6%; in [9] (time 25 hrs), 68.5%.
As to `O=C1Nc2c(cccc2-c2ccc(Cl)cc2)/C1=C/c1ccnc2ccccc12`, the IC50 in experiment [1] was greater than 50 µM; in experiment [17] it was greater than 1 µM. The outcome in experiment [8] (time 25.0 hrs) and in [9] (time 25.0 hrs) was inactive.
For the compound `O=C(Nc1nccc2ccccc12)c1cccc(-c2ccc(CN3CCOCC3)cc2)c1`, the IC50 worked out at 8.7 µM in [1] and 0.262 µM in experiment [17]. Besides, the Activity in experiment [8] (time 25 hrs) is 67.7%; in experiment [9] (time 25 hrs), 70.6%.
As for `CNC(=O)c1ccc(NC(=O)c2cccc(-c3ccc(CN4CCOCC4)cc3)c2)cc1`, the figures for the half-inhibitory concentration (IC50) in [1] and in [17] were greater than 50 µM and greater than 1 µM, respectively. Also, the outcome in experiment [8] (time 25.0 hrs) and in experiment [9] (time 25.0 hrs) was inactive.
